Consider three compounds from patent US10172947B2, “Antiparasitic and/or antifungal composition comprising hydrophobised chitosan” (CENTRE NATIONAL DE LA RECHERCHE SCIENTIFIQUE (CNRS), priority 2013, dated 2019).

Converted amounts (≈) assume the structure as drawn.

Common to all, as to format: cell-based
One test has as its system Candida albicans. Put plainly: Activity against Candida albicans, IC50 by microdilution with MTT viability test. Particulars: 24 h at 35° C., molecule alone. The procedure: The inoculum is prepared by sampling 5 colonies obtained after 24 h of culture on Sabouraud agar medium, each one of at least 1 mm in diameter, and by putting them in suspension in 5 mL of sterile NaCl (0.85%). The turbidity of each suspension is evaluated by measuring the optical density at a wavelength of 530 nm then adjusted with a sterile isotonic solution so as to obtain an absorbance equivalent to that obtained with the turbidimetric standard (Mac Farland 0.5).
This protocol leads to the obtaining of a suspension of which the concentration is between 1×10^6 and 5×10^6 CFU/mL. […]
Measuring the growth of yeasts is carried out by a standard colorimetric technique that makes use of tetrazolium salt MTT (5 mg/mL) (3-(4,5-dimethylthiazol-2-yl)-2,5-diphenyl tetrazolium bromide) with menadione (vitamin K). […] The quantity of precipitate formed is proportional to the quantity of living cells and to the metabolic activity of each cell. It is sufficient therefore after the incubation of the cells with MTT for 1 h at 37° C., to add an agent solubilising the crystals of formazan, to centrifuge the 96-well plates, and to read the optical density of the supernatant. A simple dosage of the optical density at 570 nm by spectroscopy makes it possible to know the relative quantity of living cells. […]
A general note: Dilution methods test growth across graded concentrations, often in twofold steps.

For test [1], the system named is Leishmania braziliensis axenic amastigotes. Put plainly: In vitro evaluation on axenic amastigotes (resazurin). As to conditions: 72 h. The procedure:
(§1) The compositions 5a (PIBCA-[chitosan20/chitosan20-TBA] 100/0 m/m %) and 4 (MC3+α-cyclodextrin 1/10% m/v), described in point 3 hereinabove, have been tested in vitro on three strains of Leishmania: Leishmania major (MHOM/SU/73/5-ASKH/LEM134), Leishmania tropica (LRC-L39/LEM2563), Leishmania braziliensis (MHOM/BR/75/M2903b). The IC50 were measured then compared to the reference product amphotericin B in order to determine the anti-leishmanial activity of the nanoparticles.
(§2) The culture of the axenic amastigotes was carried out at 37° C. in a complete M199 medium supplemented with 200 μM CaCl2 and 200 μM MgCl2.
(§3) Axenic amastigotes were induced by incubating promastigotes in complete M199 medium supplemented with 200 μM of CaCl2 and 200 μM MgCl2 at 37° C. with 5% CO2 for 48 h. Serial two-fold dilutions of the compositions were then carried out in 100 μl of the same medium in 96-well plates. The axenic amastigotes were then added in each well at 10^6/ml in 200 μl of final. volume After 72 h of incubation at 37° C. with 5% CO2, 20 μl of resazurin at 450 μM were added in each well, then incubated in the dark for 24 h at 37° C. with 5% CO2. In living cells, resazurin is reduced in resofurin. This conversion is monitored by measuring the absorbance at specific wavelengths of the resofurin (570 nm) and of the resazurin (600 nm) by using a microplate reader (Labsystem Multisken MS). The activity of the compositions is expressed in IC50. Amphotericin B is used as a reference product.

The subject of test [2] is Leishmania major axenic amastigotes. Described as above. As to conditions: 72 h. The procedure: as §1, §2, §3
Test [3] has as its system Leishmania tropica axenic amastigotes. The description is as above. Particulars: 72 h. The method, then: as §1, §2, §3
For test [4], the system named is Leishmania braziliensis promastigotes. Briefly: In vitro evaluation on promastigotes (MTT). Particulars: 72 h. The procedure: as §1
(§4) The promastigote culture was carried out at 26° C. in M199 medium (Sigma, Saint-Quentin Fallavier, France) supplemented with 4.2 mM NaHCO3, 10% of foetal calf serum inactivated by heat (Invitrogen, Saint-Aubin, France), 40 mM Hepes pH 7.5, 100 μM adenosine and 20 μM haemin (complete M199 medium).
(§5) The test of the compositions on prosmatigotes was conducted as previously described (Saint-Pierre-Chazalet et al., J. Antimicrob. Chemother., 2009, 64, 993-1001). Series of dilutions were carried out in 100 μl of complete M199 medium in a 96-well plate. Promastigotes in exponential growth were then added to each well at a rate of 10^6/ml in a final volume of 200 μl. After 72 h of incubation at 26° C., the viability of the promastigotes was measured by using 250 μg/ml of MTT, or 3-(4,5-dimethylthiazol-2-yl)-2,5-diphenyl tetrazolium bromide (Sigma, Saint-Quentin Fallavier, France), which is reduced in formazan, an insoluble product, by the active mitochondria of the living cells. After 4 h of incubation at 26° C., the formazan is then solubilised by adding 100 μl of isopropanol containing 40 mM of HCl in each well, then incubating for 15 minutes under stirring. The viability of the cells was then quantified by measuring the absorbance at 570 nm using a plate reader (Labsystems Multiskan MS). The activity of the compositions is expressed in IC50. Amphotericin B is used as a reference product.

Test [5] relates to Leishmania tropica promastigotes. Briefly: In vitro evaluation on promastigotes (MTT). As to conditions: 72 h. The procedure:
as §1, §4, §5

The test system of test [6] is Leishmania major promastigotes. Put plainly: In vitro evaluation on promastigotes (MTT). Particulars: 72 h. The procedure:
as §1, §4, §5

Test [7] concerns Leishmania tropica intramacrophagic amastigotes. Briefly: In vitro evaluation on intramacrophagic amastigotes (RAW 264.7, Sybr Green). Particulars: 48 h of treatment. The method, then:
as §1
(§6) The macrophages RAW 264.7 were maintained at 37° C. with 5% CO2 in DMEM medium (Dulbecco's modified Eagle's medium, Gibco, Saint-Aubin, France) supplemented with 10% of foetal calf serum, inactivated by heat (Invitrogen, Saint-Aubin, France), also called complete DMEM medium.
(§7) The evaluation of the compositions 5a and 4 on intramacrophagic amastigotes was conducted as previously described (Audisio et al., Eur. J. Med. Chem., 2012, 52, 44-50). The macrophages RAW 264.7 were added in the wells of 96-well plates at a rate of 2×10^4 cells per well and incubated for 24 h at 37° C. with 5% CO2. The axenic amastigotes were then induced as described hereinabove, centrifuged at 2000 g for 10 minutes, then resuspended in a complete DMEM medium, and added to each well at a rate of 3.2×10^5 parasites per well, in order to reach a parasite/macrophage ratio of 16:1. After 24 h of infection at 37° C. with 5% CO2, the extracellular parasites were removed and 100 μl of complete DMEM medium containing the seried dilutions of the compositions were added to each well. After 48 h of treatment, the culture medium is removed, then replaced with 100 μl of DirectPCR Lysis reagent (Euromedex, Souffelweyersheim, France), and three freezing-thawing cycles at ambient temperature are then carried out, then 50 μg/ml of proteinase K are added, and a final incubation at 55° C. for 4 hours is carried out in order to allow for the complete lysis of the cells. […] The fluorescence of the DNA was measured using the Mastercycler® realplex (Eppendorf, Montesson, France). […]

Test [8] relates to Leishmania major intramacrophagic amastigotes. The test is described as above. As to conditions: 48 h of treatment. The procedure: as §1, §6, §7
For test [9], the system named is Leishmania braziliensis intramacrophagic amastigotes. The test is described as above. As to conditions: 48 h of treatment. The procedure: as §1, §6, §7
Another test relates to Trichomonas vaginalis. Put plainly: Anti Trichomonas vaginalis activity, parasite count after 24 h. Particulars: reference product, MTZ-sensitive strain ATCC PRA-98. The method, then: Trichomonas vaginalis is axenically cultivated at 35° C. in a trypticase-yeast extract-maltose medium (TYM) (Diamond L. S. et al., J. Parasitol., 1957, 43(4), 488-490) enriched with 10% of decomplemented horse serum (Gibco, France); the strain is subcultured every other day (Camuzat-Dedenis B. et al., Eur. J. Med. Chem., 2001, 36(10), 837-842).
The tubes of culture containing the fresh TYM medium enriched with 10% of horse serum alone (control 1, noted as C1) or those with the compositions tested, are inoculated with the parasite at a rate of 2×10^5 protozoa in 3 mL. The compositions tested are the compositions of PIBCA-[chitosan20/chitosan20-TBA] that have different proportions of chitosan and of thiolated chitosan, namely 100/0, 75/25, 50/50 and 25/75 m/m %. The concentrations in nanoparticles studied are 12.5, 25, 50 and 100 μg/mL.
The results are compared between (i) the nanoparticles of PIBCA/F68; (ii) the solutions comprised of mixtures of PIBCA-[chitosan20/chitosan20-TBA] having different proportions of chitosan and thiolated chitosan, namely 100/0, 75/25, 50/50 and 25/75 m/m %, (iii) the polymerisation medium (control 2, noted as C2). […]
The tubes are incubated for 24 h at 35° C. and the number of parasites per milliliter in each tube is determined microscopically with a haemocytometer (Kova® Glasstic® Slide 10, Hycor Biomedical, United States). […]

For the compound `N=C(NCCCCCCNC(=N)NC(=N)Nc1ccc(Cl)cc1)NC(=N)Nc1ccc(Cl)cc1.O=C(O)[C@H](O)[C@@H](O)[C@H](O)[C@H](O)CO.O=C(O)[C@H](O)[C@@H](O)[C@H](O)[C@H](O)CO` [chlorhexidine digluconate], the “IC50 against Candida albicans” value in the test on Candida albicans is recorded as 0.00068%.
As for `C[C@@H]1[C@H](O)[C@@H](C)/C=C/C=C/C=C/C=C/C=C/C=C/C=C/[C@H](O[C@@H]2O[C@H](C)[C@@H](O)[C@H](N)[C@@H]2O)C[C@@H]2O[C@](O)(C[C@@H](O)C[C@@H](O)[C@H](O)CC[C@@H](O)C[C@@H](O)CC(=O)O[C@H]1C)C[C@H](O)[C@H]2C(=O)O` [Amphotericin B-DOC, Amphotericin B], the “IC50 (ng/μl) ± SEM” value is 0.055 ± 0.014 ng/µL (≈ 0.0595 µM) in test [1]; 0.038 ± 0.002 ng/µL (≈ 0.0411 µM) in test [2]; 0.049 ± 0.01 ng/µL (≈ 0.053 µM) in test [3]; 0.022 ± 0.005 ng/µL (≈ 0.0238 µM) in test [4]; 0.023 ± 0.002 ng/µL (≈ 0.0249 µM) in [5]; 0.015 ± 0.004 ng/µL (≈ 0.0162 µM) in test [6]. Besides, the “IC50 (ng/μl) ± SEM” value in test [7] came out at 0.51 ± 0.07 ng/µL (≈ 0.552 µM); in [8], 0.49 ± 0.13 ng/µL (≈ 0.53 µM); in test [9], 0.29 ± 0.09 ng/µL (≈ 0.314 µM).
As to `Cc1ncc([N+](=O)[O-])n1CCO` [MTZ, metronidazole], the “lethal concentration against Trichomonas vaginalis” value in the test on Trichomonas vaginalis was 7 µg/mL.
